Experiments:
in vivo [1] = conditions: mouse, iv, 3 mg/kg
in vivo [2] = conditions: mouse, iv, 3 mg/kg; remark: listed apart in the source
in vivo [3] = conditions: mouse, po, 3 mg/kg
in vivo [4] = conditions: mouse, iv, 3 mg/kg; remark: listed apart in the source
in vivo [5] = conditions: mouse, iv, 3 mg/kg; remark: listed apart in the source
in vivo [6] = conditions: mouse, po, 3 mg/kg; remark: listed apart in the source
Mus musculus = organism: Mus musculus; conditions: in vivo, po, 3 mg/kg
in vivo [7] = conditions: mouse, iv, 3 mg/kg; remark: listed apart in the source
in vivo [8] = conditions: mouse, po, 3 mg/kg; remark: listed apart in the source
[9] = biological target: T1, Tyrosine-protein kinase receptor UFO (Homo sapiens, UniProt P30530)
T1 sequence (P30530 whole entry): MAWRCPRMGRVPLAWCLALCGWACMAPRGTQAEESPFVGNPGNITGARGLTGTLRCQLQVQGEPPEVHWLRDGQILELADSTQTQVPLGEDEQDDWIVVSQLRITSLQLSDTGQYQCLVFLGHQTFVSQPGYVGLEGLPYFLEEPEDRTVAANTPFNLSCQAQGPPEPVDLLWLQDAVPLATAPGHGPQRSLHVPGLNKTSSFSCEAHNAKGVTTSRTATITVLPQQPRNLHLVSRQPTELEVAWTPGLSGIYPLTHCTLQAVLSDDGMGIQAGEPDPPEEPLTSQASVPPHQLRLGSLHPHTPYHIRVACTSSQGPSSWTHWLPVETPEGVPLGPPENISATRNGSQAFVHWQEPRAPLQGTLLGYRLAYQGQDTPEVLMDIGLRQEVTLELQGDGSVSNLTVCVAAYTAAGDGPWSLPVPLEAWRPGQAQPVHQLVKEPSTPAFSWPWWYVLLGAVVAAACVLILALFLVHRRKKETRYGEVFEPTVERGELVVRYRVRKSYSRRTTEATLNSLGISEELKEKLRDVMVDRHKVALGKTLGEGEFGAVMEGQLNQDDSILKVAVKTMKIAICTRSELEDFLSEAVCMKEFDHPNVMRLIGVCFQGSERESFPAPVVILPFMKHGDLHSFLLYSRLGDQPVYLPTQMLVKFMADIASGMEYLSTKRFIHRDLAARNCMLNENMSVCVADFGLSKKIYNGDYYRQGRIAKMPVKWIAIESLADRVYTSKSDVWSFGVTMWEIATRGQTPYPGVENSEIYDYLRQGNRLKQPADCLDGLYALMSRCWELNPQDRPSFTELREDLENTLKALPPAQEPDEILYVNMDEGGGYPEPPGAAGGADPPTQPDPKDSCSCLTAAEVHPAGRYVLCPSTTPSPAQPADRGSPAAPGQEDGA

[10] = biological target: T2, Tyrosine-protein kinase receptor TYRO3 (Homo sapiens, UniProt Q06418)
T2 sequence (Q06418 whole entry): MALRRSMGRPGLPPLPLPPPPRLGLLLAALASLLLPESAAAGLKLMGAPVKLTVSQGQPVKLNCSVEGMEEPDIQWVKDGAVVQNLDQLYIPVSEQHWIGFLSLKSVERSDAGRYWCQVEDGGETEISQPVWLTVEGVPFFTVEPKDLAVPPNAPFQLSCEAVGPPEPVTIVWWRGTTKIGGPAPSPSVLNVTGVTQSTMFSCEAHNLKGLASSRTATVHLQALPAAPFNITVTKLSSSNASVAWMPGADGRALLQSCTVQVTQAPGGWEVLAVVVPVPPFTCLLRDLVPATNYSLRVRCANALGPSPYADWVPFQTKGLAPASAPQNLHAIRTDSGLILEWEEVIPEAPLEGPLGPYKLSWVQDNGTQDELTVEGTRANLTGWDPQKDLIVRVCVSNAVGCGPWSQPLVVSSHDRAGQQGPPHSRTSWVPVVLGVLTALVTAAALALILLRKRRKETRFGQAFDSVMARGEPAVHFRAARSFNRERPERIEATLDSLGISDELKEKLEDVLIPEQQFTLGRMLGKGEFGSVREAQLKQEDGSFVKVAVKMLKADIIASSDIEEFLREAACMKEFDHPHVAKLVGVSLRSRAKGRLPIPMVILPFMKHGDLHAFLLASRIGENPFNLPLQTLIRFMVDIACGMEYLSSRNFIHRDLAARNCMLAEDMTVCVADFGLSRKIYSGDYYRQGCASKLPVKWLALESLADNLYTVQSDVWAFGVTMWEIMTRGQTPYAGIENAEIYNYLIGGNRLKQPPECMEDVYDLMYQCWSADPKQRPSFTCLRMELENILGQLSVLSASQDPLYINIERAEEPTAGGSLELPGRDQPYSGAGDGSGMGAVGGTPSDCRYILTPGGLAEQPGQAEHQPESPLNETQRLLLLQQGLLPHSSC

SMILES	Vd (in vivo [1]) [L/kg]	Cmax (in vivo [2]) [ng/mL]	AUC(0-t) (in vivo [3]) [ng·h/mL]	half-life (in vivo [4]) [min]	clearance (in vivo [5]) [mL/min/kg]	Tmax (in vivo [6]) [min]	F (Mus musculus) [%]	AUC(0-t) (in vivo [7]) [ng·h/mL]	Cmax (in vivo [8]) [ng/mL]	IC50 [9] [µM]	IC50 [10] [µM]
CCCCNc1ncc(-c2ccc(CN3CCC(F)(F)CC3)cn2)c(N[C@H]2CC[C@H](O)CC2)n1	13.7	737	210	178	123	15	55	381	71	–	–
CCCCNc1ncc(-c2ccc(CNC3CC3)cn2)c(N[C@H]2CC[C@H](O)CC2)n1	39	277	103	283	130	30	27	376	33	–	–
O[C@H]1CC[C@H](Nc2nc(NCc3ccccc3)ncc2-c2ccccn2)CC1	–	–	–	–	–	–	–	–	–	> 30	–
CCCCNc1ncc(-c2ccc(F)cc2)c(N[C@H]2CC[C@H](O)CC2)n1	–	–	–	–	–	–	–	–	–	–	> 30
CCCCNc1nccc(N[C@H]2CC[C@H](O)CC2)n1	–	–	–	–	–	–	–	–	–	> 30	> 30
CCCCNc1ncc(-c2ccc(S(=O)(=O)N3CCOCC3)cn2)c(N[C@H]2CC[C@H](O)CC2)n1	2.9	1980	4.68	54.6	134	15	1.3	355	13.9	–	–
CCCCNc1ncc(-c2ccc(CN3CCOCC3)cn2)c(N[C@H]2CC[C@H](O)CC2)n1	3.9	1980	180	95.4	62.2	15	23	794	162	–	–
CSc1ncc(-c2ccccn2)c(N[C@H]2CC[C@H](O)CC2)n1	–	–	–	–	–	–	–	–	–	> 30	> 30

Source: ChEMBL document CHEMBL3091310, “Pseudo-cyclization through intramolecular hydrogen bond enables discovery of pyridine substituted pyrimidines as new Mer kinase inhibitors” (J Med Chem, 2013)
